Laboratory results reported in publication PMC10423278, “Delivered complementation in planta (DCIP) enables measurement of peptide-mediated protein delivery efficiency in plants” (Communications Biology, 2023).
No end group written: not given here.

Columns and labels:
[1] = system: DCIP-expressing leaves (intact); experiment: DCIP in attached, intact leaves incubated in situ; type: cell-based, Nicotiana benthamiana
Procedure: We next confirmed that DCIP is capable of detecting successful delivery in attached, intact leaves instead of leaf discs. DCIP-expressing leaves were thus infiltrated with 100 μM R9-GFP11 solutions and allowed to incubate in situ. During this time, the infiltrated liquid would dry, rendering the effective treatment concentration difficult to compare to the above leaf disc assays. We then assessed the amount of sfGFP complementation at 4 or 24 h post infiltration with 100 μM R9-GFP11 (Fig. 4a). […] We also tested whether or not 24 h-treated cells were still competent to R9-mediated delivery; we retreated a previously 24H treated leaf with 100 μM R9-GFP11, and imaged 4 h post re-treatment. […] The limited fluorescence recovery with re-treatment could be due to an induced stress response that decreases the cell wall permeability.
Three days after agroinfiltration, DCIP-expressing leaves were infiltrated with the treatment solutions. Unless otherwise stated, an 8 mm punch was then excised from the infiltrated area and plated, abaxial side up, onto ½ MS pH 5.7 agar plates. The plates were then left to incubate under ambient conditions for 4–5 h before imaging. For cold temperature treatment, after infiltration with ice-cold solutions of R9-GFP11 and disc excision, the leaf discs were plated onto ice-cold agar and immediately transferred to a 4 °C refrigerator for incubation. After incubation, the agar plates with leaf discs were kept on ice until the moment of imaging. For in situ incubation, leaves were simply infiltrated and the plant was returned to the growing chamber for incubation. […]
Excised leaf discs were imaged on a Zeiss LSM880 laser scanning confocal microscope. Images for semi-quantitative analysis were collected using a ×20/1.0NA Plan-apochromat water immersion objective and larger field-of-views were collected using a ×5 objective. […] For quantification experiments, z-stacks were acquired with the imaging depth set to capture the epidermal layer down to the point where mCherry nuclei could no longer be detected. z-stacks from four fields of view were acquired for every treatment condition. Quantitative image analysis and downstream processing was performed using Cell Profiler 3.0. […] Cell Profiler was then used to quantify the number, mCherry intensity, GFP intensity, and red (mCherry)/green (sfGFP) ratio of the projected nuclei.
Data obtained from Cell Profiler was processed using a script written in Python 3.9. Using the Cell Profiler data, GFP positive nuclei were counted using a Python script by setting a threshold defined as a one-tailed 99% confidence interval above the mean green/red ratio in the untreated control or water infiltration control of each experiment. […]

[2] = R9-GFP11 dot blot assay (anti-GFP11) of leaf lysates, tissue stability; type: in vivo, Nicotiana benthamiana; details: 500 μM in water infiltrated, in situ, 0, 4, 8, 24 h; 12 mm disc lysed in RIPA, dot blot anti-GFP11, N = 6
Procedure: We infiltrated leaves with 500 μM R9-GFP11 and left the plants to incubate in situ. A higher concentration of R9-GFP11 was chosen to facilitate detection by immunoblotting. After 0, 4, 8, and 24 h of incubation, a single 12 mm leaf disc was harvested and lysed for each treatment. Two microliters of lysates were then spotted onto nitrocellulose for dot blot analysis[42] using a primary antibody raised against GFP11. […] The reduction at 24 h in the sfGFP signal is indicative of the combined intracellular and extracellular turnover of GFP11 becoming higher than the rate of delivery and complementation. […] We hypothesize that similar dynamics from apoplastic proteases[45] and intracellular degradation are at play in plants.
The third or fourth leaf of 4–5-week-old wild-type N. benthamiana was infiltrated with 500 μM R9-GFP11 in water using a needless syringe. Infiltrations were staggered such that all treatments could be harvested simultaneously for 0, 4, 8, and 24 h time points. Each treatment was performed on a separate plant and the experiment was repeated thrice. A 12 mm leaf disc was excised for each treatment using a leaf punch and flash frozen in liquid nitrogen before grinding and lysis in 20 μL RIPA buffer with 1x plant protease inhibitor cocktail (Sigma-Aldrich: P9599). The lysates were then clarified by centrifugation at 21,000 × g for 30 min. […]

In the case of “RRRRRRRRRGSGSRDHMVLHEYVNAAGIT [R9-GFP11]”, the “time to disappearance of GFP complementation (DCIP) signal” value ([1]; 100 μM, intact leaves in situ) is reported as no more than 24 h, the “percentage of sfGFP positive cells, 4 h post infiltration” value ([1]; 100 μM, intact leaves in situ, N = 5) is reported as “relatively high percentage of sfGFP positive cells” and the “percentage of sfGFP-positive cells, 24 h post infiltration” value ([1]; 100 μM, intact leaves in situ, N = 5, not statistically different from non-treated control) is reported as “returned nearly to baseline”. The “delivery after re-treatment of a 24 h treated leaf” value ([1]; re-treated with 100 μM, imaged 4 h post re-treatment) was “some instances of successful delivery” and the “time until recovered/tissue-localized peptide returns to level of non-treated control (clearance from leaf tissue)” value [2] was no more than 24 h.
